Experimental data as given in PubChem BioAssay AID602307 (Southern Research Specialized Biocontainment Screening …, 2012).
The source made the active and inactive calls. No rule for the calls is given here.

Test system: VEEV TC-83 infected cells, virus titer reduction
Assay: VEEV titer reduction by compounds, cell-based, TC-83 strain, virus titer (AID 602307)
Settings: for log virus titer change: stronger effect = lower value

Compound	outcome	log virus titer change (titer change, at 10 µM)	log virus titer change (at 5 µM)
O=C(Cc1cccs1)Nc1nc2c(s1)CCCC2	active	-2.14	
O=C(Cc1ccccc1)Nc1nc2c(s1)CCCC2			-0.01 (inactive)
CN1CCN(Cc2nc3ccc([N+](=O)[O-])cc3c(=O)n2-c2ccccc2F)CC1			< -6.36
CC(C)N1CCN(Cc2nc3ccc([N+](=O)[O-])cc3c(=O)n2-c2ccccc2F)CC1			0.041 (inactive)
O=C(Cc1cccs1)Nc1nc2ccccc2s1			-0.238 (inactive)
Clc1ccc2nnnc(-c3ccccc3)c2c1	active	-4.36	
CCOC(=O)c1ccc(Nc2nc(=O)c3cccnc3s2)cc1	active	-3.31	
Cc1cc(Cc2cc(C)cc(C(C)(C)C)c2O)c(O)c(Cc2cc(C)cc(C(C)(C)C)c2O)c1			-0.734 (inactive)
O=C(Cc1cccs1)Nc1nccs1			-0.062 (inactive)
O=C(Oc1ccc2ccccc2c1Br)N1CCCCCC1	active	-2.09	
CCN1CCN(Cc2nc3ccc([N+](=O)[O-])cc3c(=O)n2-c2ccccc2F)CC1		-5.8	< -6.36
CN(C(=O)Cc1cccs1)c1nc2c(s1)CCCC2			0.281 (inactive)
O=c1c2cc([N+](=O)[O-])ccc2nc(CN2CCOCC2)n1-c1ccccc1F			0.297 (inactive)
O=C(Nc1nc2c(s1)CCCC2)c1cccs1			-0.12 (inactive)
Cc1ccccc1C(=O)Nc1ccc2c(c1)CCCN2C(=O)c1cccs1	active	-2.04	
O=c1c2cc([N+](=O)[O-])ccc2nc(CN2CCN(c3ccccc3)CC2)n1-c1ccccc1F	active	-1.3	
O=c1nc(Nc2ccc(OCc3ccccc3)cc2)sc2ncccc12	active	-3.43	
